According to patent publication US9988341B2, “Bacterial topoisomerase inhibitors and use thereof” (THE FLORIDA INTERNATIONAL UNIVERSITY BOARD OF TRUSTEES, priority 2016, dated 2018):
Converted amounts (≈) assume the structure as drawn.

How the values were obtained:
E. coli topoisomerase I = E. coli topoisomerase I (Escherichia coli, UniProt P06612); assay: Bacterial topoisomerase I relaxation activity inhibition assay (EcTopI); assay type: biochemical
Method: The relaxation activity of bacterial topoisomerase I was assayed in a buffer containing 10 mM Tris-HCl, pH 8.0, 50 mM NaCl, 0.1 mg/mL gelatin, and 0.5 mM MgCl2. One microliter of the compounds dissolved in DMF (dimethylformamide) or solvent alone was mixed with 10 μl of the reaction buffer containing 10 ng of enzyme before the addition of 9 μl of reaction buffer containing 160 ng of supercoiled pBAD/Thio plasmid DNA purified by cesium chloride gradient as substrate. Following incubation at 37° C. for 30 min, the reactions were terminated by the addition of 4 μl of 50% glycerol, 50 mM EDTA, and 0.5% (v/v) bromophenol blue, and analyzed by agarose gel electrophoresis. The gels were stained in ethidium bromide and photographed under UV light.

[1] = molecular target: M. tuberculosis topoisomerase I (Mycobacterium tuberculosis, UniProt P9WG49); assay: biochemical; conditions: Table 3; read-out: MtbTopI IC50
M. smegmatis mc2 155 = assay: M. smegmatis growth inhibition (MIC); assay type: cell-based; conditions: Mycolicibacterium smegmatis, MC2155
Mtb-lux = assay type: cell-based, M. tuberculosis
[2] = system: M. smegmatis mc2 155/pTA-noI; assay: microbe, parasite or virus in culture; assay type: cell-based; conditions: Mycolicibacterium smegmatis, MC2155, read-out: MIC, M. smegmatis mc2 155/pTA-noI
Mtb CDC1551 Mtb::lux = assay: microbe, parasite or virus in culture; assay type: cell-based, M. tuberculosis; conditions: Mycobacterium tuberculosis, 120 h; 50% reduction in luminescence signal compared to controls; 5 days
[3] = Resazurin-based cytotoxicity assay; conditions: mouse, J774 macrophages, 50% loss of viability in J774 macrophage cell line after 24 hr exposure
Method: (§1) J774 macrophages were cultured in Dulbeco's minimal essential medium (DMEM) supplemented with 10% heat inactivated fetal bovine serum. One day prior to performing the assay 2.5×10^4 cells were seeded on black 384 well. Compounds and controls (0.4% DMSO and 2% Triton X final concentrations) were added 6 hr after seeding. Survival was determined after 24 hr by resazurin reduction measurement. Addition of 0.02 mg/mL resazurin was followed by 4 hours incubation at 37° C. and subsequent fluorescence reading (530 nm/590 nm) using a Synergy H4 (BioTek) plate reader. Data are presented as a percent viability compared to the vehicle (0.4% DMSO) control with 100% being noncytotoxic.

J774 macrophages = assay: Resazurin-based cytotoxicity assay; conditions: 50% loss of viability in J774 macrophage cell line after 24 hr exposure
Method: as §1

E. coli DNA gyrase = molecular target: T1, E. coli DNA gyrase (Escherichia coli, UniProt P0AES4+P0AES6); assay: DNA gyrase supercoiling inhibition assay; assay type: biochemical
T1 construct: purchased New England BioLabs
Method: DNA gyrase (obtained from New England BioLabs) supercoiling assays were carried out by mixing the compounds with 2 U of the enzyme in reaction buffer supplied by the manufacturer, followed by the addition of 300 ng of relaxed covalently closed circular DNA was for a final reaction volume of 20 μL. The samples were incubated at 37° C. for 30 minutes before being terminated by the addition of a buffer containing 5% SDS, 0.25% bromophenol blue, and 25% glycerol. The reactions were then analyzed by agarose gel electrophoresis.

Human topoisomerase I = molecular target: T2, Human topoisomerase I (Homo sapiens, UniProt P11387); assay: Human topoisomerase I relaxation inhibition assay; assay type: biochemical
T2 construct: purchased TopoGen
T2 sequence (P11387 1-765): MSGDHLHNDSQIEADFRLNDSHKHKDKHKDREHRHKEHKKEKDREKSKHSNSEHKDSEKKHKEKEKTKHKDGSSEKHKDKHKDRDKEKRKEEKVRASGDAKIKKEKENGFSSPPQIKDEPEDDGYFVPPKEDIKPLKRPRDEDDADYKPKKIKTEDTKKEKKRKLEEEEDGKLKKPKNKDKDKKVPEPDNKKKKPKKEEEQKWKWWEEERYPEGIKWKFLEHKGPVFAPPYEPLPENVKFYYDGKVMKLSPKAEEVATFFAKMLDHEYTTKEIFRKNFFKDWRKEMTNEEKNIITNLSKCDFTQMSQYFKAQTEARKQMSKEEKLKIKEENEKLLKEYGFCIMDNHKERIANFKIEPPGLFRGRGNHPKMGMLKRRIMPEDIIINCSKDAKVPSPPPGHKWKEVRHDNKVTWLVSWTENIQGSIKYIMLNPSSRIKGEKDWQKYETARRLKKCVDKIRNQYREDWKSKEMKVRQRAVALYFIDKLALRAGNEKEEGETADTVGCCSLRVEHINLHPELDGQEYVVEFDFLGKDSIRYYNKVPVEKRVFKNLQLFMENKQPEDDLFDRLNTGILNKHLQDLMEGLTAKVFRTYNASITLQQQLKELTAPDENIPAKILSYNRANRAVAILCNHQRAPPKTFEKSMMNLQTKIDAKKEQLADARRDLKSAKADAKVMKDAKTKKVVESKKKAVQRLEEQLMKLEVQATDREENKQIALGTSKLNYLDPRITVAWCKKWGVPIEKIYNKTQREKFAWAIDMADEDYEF
Method: Human topoisomerase I (obtained from TopoGen) relaxation assays were carried out with 0.5 U of enzyme in reaction buffer supplied by the manufacturer. The enzyme was mixed with the indicated concentration of compound dissolved before 160 ng of supercoiled pBAD/Thio plasmid DNA was added in the same buffer, for a final volume of 20 μL. Following incubation at 37° C. for 30 minutes, the reactions were terminated with a buffer containing 5% SDS, 0.25% bromophenol blue, and 25% glycerol, and analyzed by agarose gel electrophoresis.

Mtb::lux = assay type: cell-based, M. tuberculosis; conditions: at higher concentrations; data not shown
HEK = HEK toxicity
MtbTopI = MtbTopI (Mycobacterium tuberculosis, UniProt P9WG49); assay: Anisotropy assay of DNA binding by MtbTopI; conditions: compounds at their IC50 concentrations
M. smegmatis = M. smegmatis loss of viability (viable colony counts); assay type: cell-based
Human Topoisomerase IIα = molecular target: T3, Human Topoisomerase IIα (Homo sapiens, UniProt P11388); assay: Human topoisomerase IIα decatenation inhibition assay; assay type: biochemical
T3 construct: purchased TopoGen
Method: Human Topoisomerase IIα (obtained from TopoGen) assays were carried out by adding the compounds to 180 ng of kinetoplast DNA (kDNA) in the buffer supplied by the manufacturer before the addition of 2 U of the enzyme. The samples were incubated for 15 minutes at 37° C. before the addition of 4 μl of stop buffer containing 5% sarkosyl, 0.0025% bromophenol blue, and 25% glycerol. The reactions were then analyzed by electrophoresis in 1% agarose gels containing 0.5 μg ml^−1 ethidium bromide before being photographed under UV light.

Chain of M. tuberculosis topoisomerase I (P9WG49 whole entry): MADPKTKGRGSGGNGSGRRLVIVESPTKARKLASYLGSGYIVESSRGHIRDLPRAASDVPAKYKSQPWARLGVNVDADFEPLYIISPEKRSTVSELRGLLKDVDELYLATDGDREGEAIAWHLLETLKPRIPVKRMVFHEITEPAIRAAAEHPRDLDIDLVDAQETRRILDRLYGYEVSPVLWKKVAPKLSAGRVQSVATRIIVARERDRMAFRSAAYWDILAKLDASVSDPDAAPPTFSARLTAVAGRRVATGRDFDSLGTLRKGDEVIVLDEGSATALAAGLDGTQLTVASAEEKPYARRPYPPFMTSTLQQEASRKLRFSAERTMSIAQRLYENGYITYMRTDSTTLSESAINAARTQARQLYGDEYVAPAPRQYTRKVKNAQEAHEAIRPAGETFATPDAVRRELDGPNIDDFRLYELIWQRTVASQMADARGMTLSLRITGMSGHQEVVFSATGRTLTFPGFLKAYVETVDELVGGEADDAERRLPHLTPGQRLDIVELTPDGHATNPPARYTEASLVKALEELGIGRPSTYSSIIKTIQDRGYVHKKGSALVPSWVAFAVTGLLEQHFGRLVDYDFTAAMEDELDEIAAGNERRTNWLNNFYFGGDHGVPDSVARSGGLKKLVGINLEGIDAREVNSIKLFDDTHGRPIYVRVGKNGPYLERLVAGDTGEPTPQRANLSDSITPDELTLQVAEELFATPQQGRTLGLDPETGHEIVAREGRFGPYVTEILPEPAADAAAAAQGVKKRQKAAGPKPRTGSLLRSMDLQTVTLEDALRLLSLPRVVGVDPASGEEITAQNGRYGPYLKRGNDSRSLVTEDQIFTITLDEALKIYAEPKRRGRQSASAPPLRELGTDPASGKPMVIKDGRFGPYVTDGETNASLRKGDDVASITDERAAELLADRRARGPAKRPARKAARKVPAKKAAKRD
Chain of E. coli topoisomerase I (P06612 whole entry): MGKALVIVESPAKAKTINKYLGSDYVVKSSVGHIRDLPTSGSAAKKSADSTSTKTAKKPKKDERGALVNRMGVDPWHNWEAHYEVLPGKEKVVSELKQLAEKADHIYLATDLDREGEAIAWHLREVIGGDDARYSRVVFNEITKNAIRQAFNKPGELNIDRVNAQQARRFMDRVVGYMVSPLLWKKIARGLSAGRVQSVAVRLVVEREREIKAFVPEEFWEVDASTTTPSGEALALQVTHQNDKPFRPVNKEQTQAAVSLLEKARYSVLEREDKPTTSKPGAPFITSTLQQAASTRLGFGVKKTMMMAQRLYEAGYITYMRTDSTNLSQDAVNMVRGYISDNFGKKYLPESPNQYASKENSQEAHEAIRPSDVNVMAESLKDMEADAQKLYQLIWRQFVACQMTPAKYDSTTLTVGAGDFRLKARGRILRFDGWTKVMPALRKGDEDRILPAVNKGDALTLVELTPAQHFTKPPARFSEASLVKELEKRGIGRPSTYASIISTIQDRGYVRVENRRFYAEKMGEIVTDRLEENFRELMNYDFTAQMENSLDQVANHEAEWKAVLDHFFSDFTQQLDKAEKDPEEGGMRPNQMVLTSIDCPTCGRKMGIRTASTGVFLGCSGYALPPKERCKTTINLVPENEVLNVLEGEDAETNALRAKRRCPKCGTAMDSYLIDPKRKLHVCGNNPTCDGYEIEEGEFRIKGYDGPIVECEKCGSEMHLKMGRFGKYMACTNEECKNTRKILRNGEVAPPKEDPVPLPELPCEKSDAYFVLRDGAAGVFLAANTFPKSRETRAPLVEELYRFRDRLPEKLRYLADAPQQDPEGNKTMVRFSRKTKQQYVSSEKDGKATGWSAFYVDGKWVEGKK
T1 sequence (P0AES4 whole entry, one chain of several): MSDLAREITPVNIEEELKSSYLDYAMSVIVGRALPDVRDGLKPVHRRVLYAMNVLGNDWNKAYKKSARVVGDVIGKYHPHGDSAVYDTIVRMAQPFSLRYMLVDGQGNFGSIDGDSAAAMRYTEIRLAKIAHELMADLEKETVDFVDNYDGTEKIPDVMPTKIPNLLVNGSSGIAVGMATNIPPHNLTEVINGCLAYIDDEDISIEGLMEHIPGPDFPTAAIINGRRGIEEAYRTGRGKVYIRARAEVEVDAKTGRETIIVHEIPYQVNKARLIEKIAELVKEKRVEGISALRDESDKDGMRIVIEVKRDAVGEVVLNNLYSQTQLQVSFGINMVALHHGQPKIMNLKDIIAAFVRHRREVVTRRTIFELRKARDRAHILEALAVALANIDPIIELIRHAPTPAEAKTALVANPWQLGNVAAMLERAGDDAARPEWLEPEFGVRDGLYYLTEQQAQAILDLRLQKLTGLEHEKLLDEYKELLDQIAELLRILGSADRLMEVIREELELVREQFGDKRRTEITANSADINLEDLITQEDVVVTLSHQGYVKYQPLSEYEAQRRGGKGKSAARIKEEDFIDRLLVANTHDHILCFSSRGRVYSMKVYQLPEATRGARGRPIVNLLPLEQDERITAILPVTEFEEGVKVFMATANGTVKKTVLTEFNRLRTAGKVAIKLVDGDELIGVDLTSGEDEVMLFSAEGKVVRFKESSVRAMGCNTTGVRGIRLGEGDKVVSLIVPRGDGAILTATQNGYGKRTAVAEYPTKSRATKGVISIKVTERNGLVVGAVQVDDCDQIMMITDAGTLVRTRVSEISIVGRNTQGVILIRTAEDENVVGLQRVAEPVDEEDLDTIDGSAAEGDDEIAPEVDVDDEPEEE
T3 sequence (P11388 whole entry): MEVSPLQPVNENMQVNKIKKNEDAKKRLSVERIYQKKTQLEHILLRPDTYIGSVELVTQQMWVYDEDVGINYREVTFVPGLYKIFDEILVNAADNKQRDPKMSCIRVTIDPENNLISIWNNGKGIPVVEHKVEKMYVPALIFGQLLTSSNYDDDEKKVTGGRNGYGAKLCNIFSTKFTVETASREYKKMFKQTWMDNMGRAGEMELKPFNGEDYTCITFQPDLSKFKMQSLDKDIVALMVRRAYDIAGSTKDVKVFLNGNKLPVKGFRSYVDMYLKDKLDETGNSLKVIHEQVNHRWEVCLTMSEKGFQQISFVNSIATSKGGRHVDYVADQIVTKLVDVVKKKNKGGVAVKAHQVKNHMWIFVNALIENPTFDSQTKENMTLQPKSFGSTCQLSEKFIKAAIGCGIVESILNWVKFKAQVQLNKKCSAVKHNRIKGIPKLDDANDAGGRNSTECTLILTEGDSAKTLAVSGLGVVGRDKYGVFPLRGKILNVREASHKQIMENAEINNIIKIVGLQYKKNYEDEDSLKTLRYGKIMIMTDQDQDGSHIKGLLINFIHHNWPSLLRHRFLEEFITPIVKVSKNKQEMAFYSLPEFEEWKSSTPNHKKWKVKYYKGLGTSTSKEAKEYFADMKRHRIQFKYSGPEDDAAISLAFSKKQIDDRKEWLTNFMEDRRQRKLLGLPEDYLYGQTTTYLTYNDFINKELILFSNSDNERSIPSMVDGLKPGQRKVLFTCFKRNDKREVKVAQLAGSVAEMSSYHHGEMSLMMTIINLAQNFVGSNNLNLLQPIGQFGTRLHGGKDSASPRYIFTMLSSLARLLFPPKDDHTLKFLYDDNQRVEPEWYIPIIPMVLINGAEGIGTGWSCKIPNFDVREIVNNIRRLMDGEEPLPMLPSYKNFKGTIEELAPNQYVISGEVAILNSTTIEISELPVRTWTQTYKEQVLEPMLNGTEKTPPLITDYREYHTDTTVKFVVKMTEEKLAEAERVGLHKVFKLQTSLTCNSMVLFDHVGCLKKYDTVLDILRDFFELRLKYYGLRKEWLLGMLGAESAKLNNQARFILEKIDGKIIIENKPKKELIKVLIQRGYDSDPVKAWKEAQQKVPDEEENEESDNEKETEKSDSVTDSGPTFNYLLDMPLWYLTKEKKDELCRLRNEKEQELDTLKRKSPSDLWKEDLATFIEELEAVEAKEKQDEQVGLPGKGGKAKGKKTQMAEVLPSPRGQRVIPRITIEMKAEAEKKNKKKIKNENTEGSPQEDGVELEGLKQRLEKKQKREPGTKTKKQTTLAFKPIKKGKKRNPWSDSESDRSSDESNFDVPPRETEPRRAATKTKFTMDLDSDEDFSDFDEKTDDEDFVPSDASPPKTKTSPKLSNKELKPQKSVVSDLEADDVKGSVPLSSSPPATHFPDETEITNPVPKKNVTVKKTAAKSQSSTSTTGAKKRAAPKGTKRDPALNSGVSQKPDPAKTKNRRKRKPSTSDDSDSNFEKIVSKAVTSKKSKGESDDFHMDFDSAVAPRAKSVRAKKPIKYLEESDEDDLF

| SMILES | IC50 (E. coli topoisomerase I) [µM] | IC50 [1] [µM] | MIC (M. smegmatis mc2 155) [µM] | Percent Mtb-lux killing 5 μg/mL (Mtb-lux) [%] | MIC [2] [µM] | IC50 (Mtb CDC1551 Mtb::lux) [µM] | CC50 at 24 h [3] [µM] | CC50 (J774 macrophages) [µM] | IC50 (E. coli DNA gyrase) [µM] | IC50 (Human topoisomerase I) [µM] | Reduction of Mtb CFU (Mtb::lux) [log] | Percent HEK toxicity 6.25 μg/mL (HEK) [%] | Effect on binding of MtbTopI to oligonucleotide substrate (MtbTopI) | Time course of loss of viable colony counts, control cloning vector (M. smegmatis) | IC50 (Human Topoisomerase IIα) [µM] |
| --- | --- | --- | --- | --- | --- | --- | --- | --- | --- | --- | --- | --- | --- | --- | --- |
| CCCC[C@@H](CN[C@H](CN)CCN)NCc1cccc2ccccc12 [Compound 2471-24, (S)—N2-((S)-2-(naphthalen-1-ylmethylamino)hexyl)butane-1,2,4-triamine] | 10 | 7.5 | 50 (≈ 17.1 µg/mL) | 64.3 | 25 (≈ 8.56 µg/mL) | 8.4 | ~100 | 101 | > 160 | > 160 | 1 | 5.4 | – | – | – |
| CCCC[C@@H](CN[C@H](CN)CCCCNC)NCc1cccc2ccccc12 [Compound 2471-12, (S)—N6-methyl-N2-((S)-2-(naphthalen-1-ylmethylamino)hexyl)hexane-1,2,6-triamine] | 7.5 | 7.5 | 25 (≈ 9.62 µg/mL) | 70.9 | 12.5 (≈ 4.81 µg/mL) | 6.8 | ~100 | 104 | – | – | 1 | 15.2 | did not inhibit | rapid killing | – |
| CCCC[C@@H](CN[C@@H](CN)CCCCNC)NCc1cccc2ccccc12 [Compound 2471-36] | 20 | 15 | 25 (≈ 9.62 µg/mL) | 99.2 | – | 3.3 | ~40 | 36.5 | > 160 | > 160 | – | 15.3 | – | – | > 160 |
